Laboratory results: PMC9804489, “Phase 1/1b Studies of UCB0599, an Oral Inhibitor of α‐Synuclein Misfolding, Including a Randomized Study in Parkinson's Disease” (Movement Disorders, 2022)
Read-outs that look alike come from different tables or passages of the source.

What was measured:
[1] = UP0078 phase 1 food/ITZ study: safety and tolerability in healthy participants
Protocol: UP0078 was a phase 1, open‐label study to evaluate the potential effect of food on the bioavailability of UCB0599 and to test the potential effect of ITZ on the disposition of UCB0599 in HPs. A randomized, two‐way crossover design with a third fixed‐treatment period was used (Fig. S2).
Participants received a single 180 mg dose of UCB0599 on three separate occasions, with a washout period of ≥7 days between doses. The first dose was administered under fasted conditions, the second under fed conditions, and the third under fasted conditions co‐administered with ITZ (200 mg once daily, days 15–22).
The study was conducted at a phase 1 unit in the United Kingdom.
The primary objectives were to assess the potential effect of food intake (standard high‐fat, high‐calorie meal) on single‐dose PK of UCB0599 and to evaluate and compare the single‐dose PK of UCB0599 in the presence or absence of ITZ. The secondary and exploratory objectives were to evaluate the safety and tolerability of UCB0599 under fasted and fed conditions, and with/without concomitant administration of ITZ; to evaluate UCB0599 metabolite plasma PK in the presence or absence of ITZ; and to assess the potential effect of food intake on the single‐dose PK of UCB0599 metabolites.
Primary PK variables were AUC0–t , AUC0–inf, C max, and t max. Primary safety variables were the incidence of TEAEs and serious TEAEs. […]

[2] = UP0030 phase 1 study: plasma pharmacokinetics of UCB0599 and its metabolites; format: in vivo, human; details: for AUC: read-out: AUC, GeoMean; for Cmax: read-out: C max, GeoMean
Protocol: Statistical evaluations for all three studies were performed using SAS version 9.4 (SAS, Cary, NC, USA), and PK data were analyzed using Phoenix WinNonlin software (Certara, Princeton, NJ, USA). Continuous variables were summarized with number of participants, mean, standard deviation, median, minimum and maximum, and confidence intervals (CI) for the mean. Categorical variables were summarized with frequency counts and percentages.

[3] = UP0030 phase 1 SAD/MAD study: safety and tolerability in healthy participants
Protocol: Part 1 (Fig. S1A) was a randomized, subject‐ and investigator‐blind, placebo‐controlled study in healthy older participants (HOP). Part 2 (Fig. S1B) was an open‐label, two‐way crossover study in HPs.
Part 1 included five cohorts (1, 2, 1b, 2b, and 3) and evaluated SADs (SAD: 90, 180, 360, and 450 mg) and MADs of UCB0599 (MAD: 180 and 360 mg/day). […] The first two doses were administered as a two‐way crossover (under fasting/fed or fed/fasting conditions), and the third dose was administered to both arms under fasted conditions with 200 mg of ITZ (once daily, days −3 to 2) to assess potential drug–drug interactions.
Eligible participants were aged ≥18 years (part 1, 55–75 years for HOP; part 2, <55 years) with a body mass index (BMI) of 18–32 kg/m^2 and a body weight of ≥50 kg. The study was conducted at a phase 1 unit in Germany.
The primary objective was to evaluate the safety and tolerability of UCB0599 after the administration of single and multiple doses in HOP. The secondary objectives are to evaluate the PK of UCB0599 and its desmethyl and N‐oxide metabolites after the administration of single and multiple doses in HOP and to evaluate the PK, safety, and tolerability of UCB0599 in HPs when given a single dose alone, with food or with ITZ.
Safety variables included the incidence of any treatment‐emergent adverse event (TEAE), changes in vital signs, laboratory assessments, 12‐lead electrocardiogram (ECG) and Holter ECG assessment, and the Columbia Suicide Severity Rating Scale (C‐SSRS). PK variables included maximum plasma concentration (C max), time of maximum concentration (t max), AUC (area under the plasma concentration–time curve) from time 0 to last quantifiable concentration (AUC0–t ), AUC from time 0 to infinity (AUC0–inf), apparent total body clearance, apparent volume of distribution, and apparent elimination half‐life (t 1/2).

[4] = human, plasma, oral, UP0030 single dose 90 mg
[5] = human, plasma, oral, UP0030 single dose 450 mg
[6] = UP0030, UCB0599 180 mg/day, n=17
[7] = UP0030 part 2, fasted UCB0599 360 mg, n=3
[8] = UP0030 part 2, fed UCB0599 360 mg, n=3

## CCC(C)n1ncn(-c2ccc(N3CCN(c4ccc(OCC5COC(Cn6cncn6)(c6ccc(Cl)cc6Cl)O5)cc4)CC3)cc2)c1=O (stereo not drawn) [ITZ, itraconazole, reference compound]
[1]
  TEAE considered related to the substance: 9.1%

## CCCC[C@H](Cc1c[nH]c2ccccc12)NC(=O)c1cnc(N2CCN(C)CC2)s1 [UCB0599]
[2]; UP0030, 180 mg/day
  Plasma steady‐state concentration achieved, on average: ≤ 7 days
[2]; human, plasma, oral, UP0030, UCB0599 180 mg/day, read-out: Median t max after multiple doses
  Tmax: 1.5 to 3 h
[2]; human, plasma, oral, UP0030 single ascending doses 90–450 mg, read-out: t max range
  Tmax: 1.5 to 2 h
[2]; human, plasma, oral, UP0030 single ascending doses of UCB0599, across dose groups, read-out: Apparent elimination half‐life, GeoMean range
  half-life: 10.6 to 13 h
[2]; [4]
  AUC: 3220 ng·h/mL
  Cmax: 374 ng/mL
[2]; [5]
  AUC: 17000 ng·h/mL
  Cmax: 1810 ng/mL
[3]; UP0030
  Hypersensitivity reactions: 2 n
  Treatment‐related patterns for vital signs, ECG tracings, or laboratory findings: no discernible UCB0599 treatment‐related patterns
[3]; UP0030, UCB0599 90 mg, n=9
  TEAE Diarrhea: 0 n (%) […]
  TEAE Drug hypersensitivity: 0 n (%) […]
  TEAE Fatigue: 0 n (%) […]
  TEAE Nasopharyngitis: 0 n (%) […]
[3]; UP0030, UCB0599 180 mg, n=17
  TEAE Diarrhea: 0 n (%) […]
  TEAE Drug hypersensitivity: 0 n (%) […]
  TEAE Fatigue: 0 n (%) […]
  TEAE Headache: 0 n (%) […]
  TEAE Myalgia: 0 n (%) […]
  TEAE Nasopharyngitis: 0 n (%) […]
  TEAE Postlumbar puncture syndrome: 0 n (%) […]
[3]; [6]
  TEAE Diarrhea: 0 n (%) […]
  TEAE Fatigue: 0 n (%) […]
  TEAE Postlumbar puncture syndrome: 0 n (%) […]
  TEAE Presyncope: 0 n (%) […]
[3]; UP0030, UCB0599 360 mg, n=18
  TEAE Drug hypersensitivity: 0 n (%) […]
  TEAE Myalgia: 0 n (%) […]
  TEAE Nasopharyngitis: 0 n (%) […]
  TEAE Presyncope: 0 n (%) […]
[3]; UP0030, UCB0599 450 mg, n=9
  TEAE Drug hypersensitivity: 0 n (%) […]
  TEAE Fatigue: 0 n (%) […]
  TEAE Myalgia: 0 n (%) […]
  TEAE Presyncope: 0 n (%) […]
  TEAE Puncture site pain: 0 n (%) […]
[3]; UP0030, after oral antihistamines
  Time to resolution of HSRs: ≤ 3 days
[3]; UP0030 part 1
  Participants reporting serious TEAEs: 4.4%
[3]; UP0030 part 1, all UCB0599 N=45
  Deaths: 0 n (%) […]
[3]; UP0030 part 1, total UCB0599
  Discontinuations due to drug hypersensitivity: 2 participants
  Participants reporting TEAEs: 66.7%
  Participants reporting severe TEAEs: 6.7%
  Participants who discontinued due to TEAEs: 11.1%
[3]; [7]
  Any TEAEs: 0 n (%) […]
  Deaths: 0 n (%) […]
  Discontinuations due to TEAEs: 0 n (%) […]
  Drug‐related TEAEs: 0 n (%) […]
  Serious TEAEs: 0 n (%) […]
  Severe TEAEs: 0 n (%) […]
[3]; UP0030 part 2, fed UCB0599 360 mg
  Participants reporting TEAEs: 33.3%
[3]; [8]
  Deaths: 0 n (%) […]
  Discontinuations due to TEAEs: 0 n (%) […]
  Drug‐related TEAEs: 0 n (%) […]
  Serious TEAEs: 0 n (%) […]
  Severe TEAEs: 0 n (%) […]
